Results as given in PMC6691788, “Design and synthesis of phthalazine-based compounds as potent anticancer agents with potential antiangiogenic activity via VEGFR-2 inhibition” (Journal of Enzyme Inhibition and Medicinal Chemistry, 2019).

What was measured:
[1] = test system: SN12C; test: NCI 60 cell panel SRB screen; assay type: cell-based; details: Homo sapiens; for activity at 10 µM: single dose 10 μM, read-out: percent cell growth promotion; for GI50 / IC (TGI) / CC50: 5 log dose; for CC50: 48 h, read-out: LC50 (the source's name)
[2] = test system: MDA-MB 231/ATCC; test: NCI 60 cell panel SRB screen; assay type: cell-based; details: Homo sapiens; for activity at 10 µM: MDA-MB-231, read-out: percent cell growth promotion; for GI50 / CC50: MDA-MB-231; for IC (TGI): MDA-MB-231, read-out: TGI; for CC50: MDA-MDA 231/ATCC, 5 log dose, 48 h, read-out: LC50 (the source's name)
[3] = test system: MALME-3M; test: NCI 60 cell panel SRB screen; assay type: cell-based; details: Homo sapiens; for activity at 10 µM / GI50 / IC (TGI): Malme-3M; for activity at 10 µM: read-out: percent cell growth promotion; for IC (TGI): read-out: TGI; for CC50: MALME-3M, 5 log dose, 48 h, read-out: LC50 (the source's name)
[4] = test system: NCI-H522; test: NCI 60 cell panel SRB screen; assay type: cell-based; details: Homo sapiens; for activity at 10 µM: NCI-H522, single dose 10 μM, read-out: percent cell growth promotion; for GI50 / IC (TGI) / CC50: NCI-H522, 5 log dose; for CC50: 48 h, read-out: LC50 (the source's name)
[5] = test system: CAKI-1; test: NCI 60 cell panel SRB screen; assay type: cell-based, human; details: for activity at 10 µM: CAKI-1, single dose 10 μM, read-out: percent cell growth promotion
[6] = test system: DU-145; test: NCI 60 cell panel SRB screen; assay type: cell-based; details: Homo sapiens; for activity at 10 µM: DU-145, single dose 10 μM, read-out: percent cell growth promotion; for GI50 / IC (TGI) / CC50: DU-145, 5 log dose; for CC50: 48 h, read-out: LC50 (the source's name)
[7] = test system: HOP-92; test: NCI 60 cell panel SRB screen; assay type: cell-based; details: Homo sapiens; for activity at 10 µM: HOP-92, single dose 10 μM, read-out: percent cell growth promotion; for GI50 / IC (TGI) / CC50: HOP-92, 5 log dose; for CC50: 48 h, read-out: LC50 (the source's name)
[8] = test system: full NCI 60 cell panel; test: NCI 60 cell panel SRB screen, whole panel; assay type: cell-based, human; details: for activity at 10 µM / inhibition at 10 µM: Homo sapiens, 60 cell; for activity at 10 µM: mean over the panel, single dose 10 μM, read-out: Mean percent cell growth promotion; for cell growth inhibition, in words / inhibition at 10 µM: single dose 10 µM; for inhibition at 10 µM: read-out: cell growth inhibition against various cell lines
Source text: Aiming to evaluate the general antitumour activity of the synthesised phthalazines, the structures of the final compounds were submitted to National Cancer Institute “NCI” (www.dtp.nci.nih.gov), Bethesda, Maryland, USA. In vitro NCI anticancer screening involves two-stage process, the first stage started with the evaluation of the selected candidates against the full NCI 60 cell lines panel representing leukaemia, non-small cell lung cancer, melanoma, colon, CNS, breast, ovarian, renal and prostate cancers at a single dose of 10 µM. NCI selection is based on degree of structure variation and application of computer modelling techniques to prioritise compounds based on their ability to add diversity to the NCI small molecule compound collection.
Eight compounds (6b, 6e, 7b, 13a, 13c, 16a, 16d and 17a) were selected by NCI for further 5 log dose screening against full NCI 60 cell panel. All the 60 cell lines, representing nine tumour subpanels (leukaemia, non-small cell lung cancer, colon cancer, CNS cancer, prostate cancer, melanoma, ovarian cancer, renal cancer and breast cancer) which were incubated at five different concentrations (0.01, 0.1, 1, 10 and 100 µM) of each of the test compounds. The outcomes were used to create log concentration vs % growth inhibition curves, then three response parameters (GI50, TGI and LC50) were calculated for each cell line, (Tables S4 and S5 in Supplementary material).
The human tumor cell lines of the cancer-screening panel were grown in RPMI 1640 medium containing 5% fetal bovine serum and […] L-glutamine. For a typical screening experiment, cells are inoculated into 96 well microtiter plates in 100 ml at plating densities ranging from 5000 to 40,000 cells/well depending on the doubling time of individual cell lines. After cell inoculation, the microtiter plates are incubated at 37 °C, 5% CO2, 95% air and 100%
relative humidity for 24 h prior to addition of experimental drugs. After 24 h, two plates of each cell line are fixed in situ with TCA, to represent a measurement of the cell population for each cell line at the time of drug addition (Tz). Experimental drugs are dissolved in dimethyl sulfoxide at 400-fold the desired final maximum test concentration and stored frozen prior to use. At the time of drug addition, an aliquot of frozen concentrate is thawed and diluted to twice the desired final maximum test concentration with complete medium containing […] Gentamicin. Additional four, 10-fold or ½log serial dilutions are made to provide a total of five drug concentrations plus control. Aliquots of […] of these different drug dilutions are added to the appropriate microtiter wells already containing 100 ml of medium, resulting in the required final drug concentrations. Following drug addition, the plates are incubated for an additional 48 h at 37 °C, 5% CO2, 95% air, and 100% relative humidity. For adherent cells, the assay is terminated by the addition of cold TCA. Cells are fixed in situ by the gentle addition of […] of cold 50% (w/v) TCA (final concentration,10% TCA) and incubated for 60 min at 4 °C. The supernatant is discarded, and the plates are washed five times with tap water and air dried. Sulforhodamine B (SRB) solution (100 ml) at 0.4% (w/v) in 1% acetic acid is added to each well, and plates are incubated for 10 min at room temperature. After staining, unbound dye is removed by washing five times with 1% acetic acid and the plates are air dried. Bound stain is subsequently dissolved with 10 μM trizma base, and the absorbance is read on an automated plate reader at a wavelength of 515 nm. For suspension cells, the methodology is the same except that the assay is terminated by fixing settled cells at the bottom of the wells by gently adding […] of 80% TCA (final concentration, 16% TCA). […]

[9] = test system: OVCAR-4; test: NCI 60 cell panel SRB screen; assay type: cell-based; details: Homo sapiens; for activity at 10 µM: OVCAR-4, single dose 10 μM, read-out: percent cell growth promotion; for GI50 / IC (TGI) / CC50: OVCAR-4, 5 log dose; for CC50: 48 h, read-out: LC50 (the source's name)
[10] = test system: SW-620; test: NCI 60 cell panel SRB screen; assay type: cell-based; details: Homo sapiens; for activity at 10 µM: SW-620, single dose 10 μM, read-out: percent cell growth promotion; for GI50 / IC (TGI) / CC50: SW-620, 5 log dose; for CC50: 48 h, read-out: LC50 (the source's name)
[11] = test system: HS 578T; test: NCI 60 cell panel SRB screen; assay type: cell-based; details: Homo sapiens; for activity at 10 µM / GI50 / IC (TGI): Hs-578T; for activity at 10 µM: read-out: percent cell growth promotion; for IC (TGI): read-out: TGI; for CC50: HS 578T, 5 log dose, 48 h, read-out: LC50 (the source's name)
[12] = test system: MDA-MB-435; test: NCI 60 cell panel SRB screen; assay type: cell-based; details: Homo sapiens; for activity at 10 µM: MDA-MB-435, read-out: percent cell growth promotion; for GI50: MDA-MB-435; for IC (TGI): MDA-MB-435, read-out: TGI; for CC50: MDA-MB-435, 5 log dose, 48 h, read-out: LC50 (the source's name)

Cc1nnc(N2CCN(c3ccccn3)CC2)c2ccccc12 [Compound 8i, 1-Methyl-4–(4-(pyridin-2-yl)piperazin-1-yl)phthalazine] showed an activity at 10 µM [1] of 104%, an activity at 10 µM [2] of 117% and an activity at 10 µM [3] of 107%. It also gave an activity at 10 µM [4] of 94.5%, an activity at 10 µM ([5]; Homo sapiens) of 94.8% and an activity at 10 µM [6] of 111%. For the same compound, the activity at 10 µM [7] was 119%, the activity at 10 µM [8] was 101% and the “cell growth inhibition, in words” value [8] was “nor the piperazines (8a, 8d, 8f, 8g, 8h and 8i) showed any significant cell line growth inhibition”. It also gave an activity at 10 µM [9] of 100%, an activity at 10 µM [10] of 113% and an activity at 10 µM [11] of 109%. For the same compound, the activity at 10 µM [12] was 99.6%.
O=C(Nc1ccccc1)Nc1ccc(Oc2nnc(Cl)c3ccccc23)cc1 [Compound 13a, 1–(4-(4-Chlorophthalazin-1-yloxy)phenyl)-3-phenylurea] was tested, and the GI50 [1] was 6.72 µM, the IC (TGI) [1] was over 25 µM and the CC50 [1] was over 25 µM. For the same compound, the activity at 10 µM [1] was 53.7%, the GI50 [2] was 4.76 µM and the IC (TGI) [2] was 12.3 µM. The activity at 10 µM [2] was 32.1%, the CC50 [2] was over 25 µM and the GI50 [3] was 1.62 µM. For the same compound, the IC (TGI) [3] was 5.93 µM, the activity at 10 µM [3] was -29.6% and the CC50 [3] was 16 µM. The GI50 [4] was 2.8 µM, the IC (TGI) [4] was 9.68 µM and the CC50 [4] was over 25 µM. For the same compound, the activity at 10 µM [4] was 2%, the TGI ([5]; CAKI-1, 5 log dose) was 14.3 µM and the GI50 ([5]; Homo sapiens, CAKI-1, 5 log dose) was 3.34 µM. For the same compound, the CC50 ([5]; Homo sapiens, CAKI-1, 5 log dose, 48 h, read-out: LC50 (the source's name)) was over 25 µM, the activity at 10 µM ([5]; Homo sapiens) was 84.4% and the GI50 [6] was 3.01 µM. For the same compound, the IC (TGI) [6] was 10.5 µM, the CC50 [6] was over 25 µM and the activity at 10 µM [6] was 39%. The GI50 [7] was 3.09 µM, the IC (TGI) [7] was 11.3 µM and the CC50 [7] was over 25 µM. For the same compound, the activity at 10 µM [7] was -7.51%, the activity at 10 µM [8] was 24.1% and the inhibition at 10 µM [8] was over 90%. The GI50 [9] was 1.73 µM, the IC (TGI) [9] was 12.2 µM and the CC50 [9] was over 25 µM. For the same compound, the activity at 10 µM [9] was 0.22%, the GI50 [10] was 8.41 µM and the IC (TGI) [10] was over 25 µM. It also gave a CC50 [10] of over 25 µM, an activity at 10 µM [10] of 73.4% and a GI50 [11] of 2.12 µM. For the same compound, the IC (TGI) [11] was 10.4 µM, the activity at 10 µM [11] was 1.19% and the CC50 [11] was over 25 µM. It also gave a GI50 [12] of 7.54 µM, an IC (TGI) [12] of over 25 µM and an activity at 10 µM [12] of 48.6%. The CC50 [12] was over 25 µM.
O=C(Nc1ccc(Cl)cc1)Nc1ccc(Oc2nnc(Cl)c3ccccc23)cc1 [Compound 13b, 1–(4-Chlorophenyl)-3–(4-(4-chlorophthalazin-1-yloxy)phenyl)urea] was tested, and the activity at 10 µM [1] was 91.4%, the activity at 10 µM [2] was 67.5% and the activity at 10 µM [3] was 92.3%. For the same compound, the activity at 10 µM [4] was 52.5%, the activity at 10 µM ([5]; Homo sapiens) was 99.1% and the activity at 10 µM [6] was 86.8%. The activity at 10 µM [7] was 104%, the activity at 10 µM [8] was 88.7% and the “cell growth inhibition, in words” value [8] was “did not show any significant cell line growth inhibition”. For the same compound, the activity at 10 µM [9] was 72.1%, the activity at 10 µM [10] was 106% and the activity at 10 µM [11] was 97.9%. The activity at 10 µM [12] was 93.9%.
Clc1ccc(Nc2nnc(CNc3ccccc3)c3ccccc23)cc1 [Compound 16a, N-(4-Chlorophenyl)-4-((phenylamino)methyl)phthalazin-1-amine] showed a GI50 [1] of 3.95 µM, an IC (TGI) [1] of 18.9 µM and a CC50 [1] of over 25 µM. It also gave an activity at 10 µM [1] of 28.9%, a GI50 [2] of 1.95 µM and an IC (TGI) [2] of 8.73 µM. It also gave an activity at 10 µM [2] of 19.9%, a CC50 [2] of over 25 µM and a GI50 [3] of 2.66 µM. It also gave an IC (TGI) [3] of 9.92 µM, an activity at 10 µM [3] of -13.8% and a CC50 [3] of over 25 µM. It also gave a GI50 [4] of 0.68 µM, an IC (TGI) [4] of 4.62 µM and a CC50 [4] of 18.5 µM. For the same compound, the activity at 10 µM [4] was -5.92%, the activity at 10 µM ([5]; Homo sapiens) was 28.2% and the GI50 [6] was over 25 µM. For the same compound, the IC (TGI) [6] was over 25 µM, the CC50 [6] was over 25 µM and the activity at 10 µM [6] was 19%. It also gave a GI50 [7] of 0.77 µM, an IC (TGI) [7] of 6.29 µM and a CC50 [7] of over 25 µM. It also gave an activity at 10 µM [7] of -19.4%, an activity at 10 µM [8] of 10.7% and an inhibition at 10 µM [8] of over 90%. It also gave a GI50 [9] of 3 µM, an IC (TGI) [9] of over 25 µM and a CC50 [9] of over 25 µM. It also gave an activity at 10 µM [9] of 19.3%, a GI50 [10] of 3.84 µM and an IC (TGI) [10] of 11.1 µM. The CC50 [10] was over 25 µM, the activity at 10 µM [10] was 30.8% and the GI50 [11] was 2.95 µM. The IC (TGI) [11] was 12.9 µM, the activity at 10 µM [11] was 26.6% and the CC50 [11] was over 25 µM. The GI50 [12] was 1.47 µM, the IC (TGI) [12] was 7.88 µM and the activity at 10 µM [12] was 4.17%. For the same compound, the CC50 [12] was over 25 µM.
